The values that follow come from paper PMC7582373, “Bis-Lactam Peptide [i, i+4]-Stapling with α-Methylated Thialysines” (Molecules, 2020).

SMILES strings stand for the structures. *1 amine or outer side, *2 acyl side, *3 side chain or, on linkers, in order; H or OH if unused. Where a SMILES comes first, the peptide text is derived from it. Bridges are numbered along the chain shown (N, C = ends). [ ]: non-standard residue; d: D form. X1 = O=C(Cc1ccc(CC(=O)NCC[*:2])cc1)NCC[*:1]; αMeC = C[C@](N)(CS)C(=O)O

Data set [1] can be described thus: circular dichroism. Particulars: water; pH ns; 25 °C; 25 and/or 50 uM. In general terms: Circular dichroism is widely used to follow secondary structure.
Data set [2] can be described thus: in vitro. The format is in vitro ADME. Particulars: Streptomyces griseus, isolated enzyme pronase, pH 7.3. From the text: We further compared the proteolytic stability of the L-α-methyl-thialysine-stapled peptide 5 and the L-thialysine-stapled peptide 6 by employing pronase as the proteolytic enzyme preparation in a proteolysis experiment. Of note, pronase is a mixture of a variety of different proteases/peptidases and therefore has a very broad substrate specificity. […] This observed difference in the proteolytic stability of 5 and 6 is in the same direction of change with the % α-helicity of 5 and 6 (see above), which would be consistent with the notion that an enhanced % α-helicity would improve the proteolytic stability of a stapled peptide, which was also supported previously with the peptides stapled with other stapling systems such as the all-hydrocarbon-stapled peptides.
The following materials were obtained from commercial sources for compound synthesis/purification and the pronase digestion assay, and were used as received. Sigma-Aldrich China (Shanghai, China): N-methylmorpholine (NMM), trifluoroacetic acid (TFA), N,N-dimethylformamide (DMF), N-(allyloxycarbonyloxy)succinimide (Alloc-OSu), triethylamine, Trizma, the pronase from Streptomyces griseus; TCI Shanghai: para-phenylenediacetic acid, 2-(tert-butoxycarbonylamino)ethyl bromide, 1,8-diazabicyclo[5.4.0]undec-7-ene (DBU), L-cysteine, N-(9-fluorenylmethoxycarbonyloxy) succinimide (Fmoc-OSu), phenylsilane (PhSiH3), tetrakis(triphenylphosphine)palladium (Pd(PPh3)4); Alfa Aesar China (Shanghai, China): 2-(1H-benzotriazole-1-yl)-1,1,3,3-tetramethylaminium hexafluorophosphate (HBTU), 2-(7-Aza-1H-benzotriazole-1-yl)-1,1,3,3-tetramethyluronium hexafluorophosphate (HATU), N-hydroxybenzotriazole (HOBt), phenol, thioanisole, ethanedithiol; Honeywell China (Shanghai, China): acetonitrile, dichloromethane (DCM), methanol, ethyl acetate; Sinopharm Chemical Reagent Co., Ltd. (Shanghai, China): acetic anhydride, diethyl ether, semi-preparative thin-layer chromatography (TLC) silica gel plate (HSGF254, 20 × 20 cm, 0.4–0.5 mm); Shanghai Plus Bio-Sci & Tech Co., Ltd. (Shanghai, China): Rink amide 4-methylbenzhydrylamine (MBHA) resin; SyncoZymes Co., Ltd. (Shanghai, China): D-2-methyl-cysteine hydrochloride; Fisher Scientific Worldwide Co., Ltd. (Shanghai, China): L-2-methyl-cysteine hydrochloride.
This experiment followed the protocol described previously. Fifty (50) µL of an 160 μM solution of a peptide (5, 6, 7, or 8) in ddH2O was thoroughly mixed with 50 μL of an 8 ng/μL solution of pronase in 100 mM Tris•HCl (pH 7.3), and the resultant solution was incubated at 37 °C until quenched at different time points (0 min, 4 min, 7.5 min, and 15 min) with an 1.0 M solution of acetic acid in ddH2O. Twenty (20) μL of a pronase digestion solution was taken at each time point and treated immediately with 40 μL of the 1.0 M acetic acid aqueous solution, followed instantly by vigorous vortexing and centrifugation. The obtained supernatant was then injected into a C18 analytical HPLC column (0.46 × 25 cm, 5 μm), and the column was eluted at 1 mL/min with ultraviolet monitoring at 214 nm with the following gradients of ddH2O containing 0.05% (v/v) TFA (mobile phase A) and acetonitrile containing 0.05% (v/v) TFA (mobile phase B): linear increase of B from 0% to 45% in 60 min (for 5 and 6), linear increase of B from 0% to 60% in 60 min (for 7), or linear increase of B from 0% to 100% in 60 min (for 8). The integrated HPLC peak areas at different time points for a given peptide were used to estimate the percentage remaining for the peptide as the function of the digestion time.

In general, fraction remaining refers to the share of the starting amount still present when the sample was taken.

In data set [1], `CC[C@H](C)[C@H](NC(=O)[C@H](CCC(=O)O)NC(=O)[C@H](CO)NC(C)=O)C(=O)N[C@H](C(=O)N[C@@H](CCCCN)C(=O)N[C@@H](CCC(N)=O)C(=O)N[C@@H](CCC(=O)O)C(=O)N[C@@H](CCCCN)C(=O)N[C@]1(C)CSCCNC(=O)Cc2ccc(cc2)CC(=O)NCCSC[C@](C)(C(=O)N[C@@H](Cc2c[nH]cn2)C(=O)N[C@@H](CCCNC(=N)N)C(=O)N[C@@H](Cc2c[nH]cn2)C(=O)N[C@@H](Cc2ccc(O)cc2)C(=O)N[C@@H](CS)C(N)=O)NC(=O)[C@H](Cc2c[nH]c3ccccc23)NC(=O)[C@H](CC(C)C)NC(=O)[C@H](Cc2ccccc2)NC1=O)[C@@H](C)O` displayed a helicity of 10.4%.

As to `CC[C@H](C)[C@H](NC(=O)[C@H](CCC(=O)O)NC(=O)[C@H](CO)NC(C)=O)C(=O)N[C@H](C(=O)N[C@@H](CCCCN)C(=O)N[C@@H](CCC(N)=O)C(=O)N[C@@H](CCC(=O)O)C(=O)N[C@@H](CCCCN)C(=O)N[C@]1(C)CSCCNC(=O)Cc2ccc(cc2)CC(=O)NCCSC[C@@](C)(C(=O)N[C@@H](Cc2c[nH]cn2)C(=O)N[C@@H](CCCNC(=N)N)C(=O)N[C@@H](Cc2c[nH]cn2)C(=O)N[C@@H](Cc2ccc(O)cc2)C(=O)N[C@@H](CS)C(N)=O)NC(=O)[C@H](Cc2c[nH]c3ccccc23)NC(=O)[C@H](CC(C)C)NC(=O)[C@H](Cc2ccccc2)NC1=O)[C@@H](C)O`, the helicity in data set [1] turned out to be 11.1%.

As for `CC[C@H](C)[C@H](NC(=O)[C@H](CCC(=O)O)NC(=O)[C@H](CO)NC(C)=O)C(=O)N[C@H](C(=O)N[C@@H](CCCCN)C(=O)N[C@@H](CCC(N)=O)C(=O)N[C@@H](CCC(=O)O)C(=O)N[C@@H](CCCCN)C(=O)N[C@@]1(C)CSCCNC(=O)Cc2ccc(cc2)CC(=O)NCCSC[C@](C)(C(=O)N[C@@H](Cc2c[nH]cn2)C(=O)N[C@@H](CCCNC(=N)N)C(=O)N[C@@H](Cc2c[nH]cn2)C(=O)N[C@@H](Cc2ccc(O)cc2)C(=O)N[C@@H](CS)C(N)=O)NC(=O)[C@H](Cc2c[nH]c3ccccc23)NC(=O)[C@H](CC(C)C)NC(=O)[C@H](Cc2ccccc2)NC1=O)[C@@H](C)O`, in data set [1], the helicity was determined as 11.8%.

`CC[C@H](C)[C@H](NC(=O)[C@H](CCC(=O)O)NC(=O)[C@H](CO)NC(C)=O)C(=O)N[C@H](C(=O)N[C@@H](CCCCN)C(=O)N[C@@H](CCC(N)=O)C(=O)N[C@@H](CCC(=O)O)C(=O)N[C@@H](CCCCN)C(=O)N[C@H]1CSCCNC(=O)Cc2ccc(cc2)CC(=O)NCCSC[C@@H](C(=O)N[C@@H](Cc2c[nH]cn2)C(=O)N[C@@H](CCCNC(=N)N)C(=O)N[C@@H](Cc2c[nH]cn2)C(=O)N[C@@H](Cc2ccc(O)cc2)C(=O)N[C@@H](CS)C(N)=O)NC(=O)[C@H](Cc2c[nH]c3ccccc23)NC(=O)[C@H](CC(C)C)NC(=O)[C@H](Cc2ccccc2)NC1=O)[C@@H](C)O` [compound 6] (Ac-SEITKQEKCFLWCHRHYC-NH2; linker 9-13 via X1): in data set [2], the amount remaining at 4 min, 80 µM was approximately 11.1% and the share remaining at 0.125 h, 80 µM was approximately 4.3%. The helicity in data set [1] is 4.4%.

In data set [2], `CC(=O)N[C@@H](CCC(=O)O)C(=O)N[C@@H](Cc1c[nH]c2ccccc12)C(=O)N[C@@H](C)C(=O)N[C@@H](CCC(=O)O)C(=O)N[C@H](C(=O)N[C@@H](C)C(=O)N[C@@H](C)C(=O)N[C@H]1CSCCNC(=O)Cc2ccc(cc2)CC(=O)NCCSC[C@@H](C(=O)N[C@@H](C)C(=O)N[C@@H](Cc2c[nH]cn2)C(=O)N[C@@H](C)C(N)=O)NC(=O)[C@H](CC(C)C)NC(=O)[C@H](Cc2ccccc2)NC(=O)[C@H](CCCCN)NC1=O)[C@@H](C)O` [compound 8] (Ac-EWAETAACKFLCAHA-NH2; linker 8-12 via X1) displayed a fraction remaining at 4 min, 80 µM of approximately 48.9%; a share remaining at 0.125 h, 80 µM of approximately 35.7%; a fraction remaining at 0.25 h, 80 µM of approximately 21.6%. This compound showed a helicity in data set [1] of 7.9%.

With `CC[C@H](C)[C@H](NC(=O)[C@H](CCC(=O)O)NC(=O)[C@H](CO)NC(C)=O)C(=O)N[C@H](C(=O)N[C@@H](CCCCN)C(=O)N[C@@H](CCC(N)=O)C(=O)N[C@@H](CCC(=O)O)C(=O)N[C@@H](CCCCN)C(=O)N[C@@]1(C)CSCCNC(=O)Cc2ccc(cc2)CC(=O)NCCSC[C@@](C)(C(=O)N[C@@H](Cc2c[nH]cn2)C(=O)N[C@@H](CCCNC(=N)N)C(=O)N[C@@H](Cc2c[nH]cn2)C(=O)N[C@@H](Cc2ccc(O)cc2)C(=O)N[C@@H](CS)C(N)=O)NC(=O)[C@H](Cc2c[nH]c3ccccc23)NC(=O)[C@H](CC(C)C)NC(=O)[C@H](Cc2ccccc2)NC1=O)[C@@H](C)O` [compound 5], in data set [2], the fraction remaining at 4 min, 80 µM was approximately 19.2% and the share remaining at 0.125 h, 80 µM is approximately 5.6%. Also, the helicity in data set [1] came out at 10.4%.

Turning to `CC(=O)N[C@@H](CCC(=O)O)C(=O)N[C@@H](Cc1c[nH]c2ccccc12)C(=O)N[C@@H](C)C(=O)N[C@@H](CCC(=O)O)C(=O)N[C@H](C(=O)N[C@@H](C)C(=O)N[C@@H](C)C(=O)N[C@@]1(C)CSCCNC(=O)Cc2ccc(cc2)CC(=O)NCCSC[C@@](C)(C(=O)N[C@@H](C)C(=O)N[C@@H](Cc2c[nH]cn2)C(=O)N[C@@H](C)C(N)=O)NC(=O)[C@H](CC(C)C)NC(=O)[C@H](Cc2ccccc2)NC(=O)[C@H](CCCCN)NC1=O)[C@@H](C)O` [compound 7] (Ac-EWAETAA[αMeC]KFL[αMeC]AHA-NH2; linker 8-12 via X1), in data set [2], the share remaining at 4 min, 80 µM was approximately 96.6%; the fraction remaining at 0.125 h, 80 µM is approximately 93.3%; the fraction remaining at 0.25 h, 80 µM was approximately 81.3%. Besides, the helicity in data set [1] was 13.5%.
